Patent publication US20180184644A1, “CELL STABILIZATION” (Biomatrica, Inc., priority 2013, published 2018)
“Also recorded” adds a separate entry of the source.

What was measured:
[1] = system: human neonatal fibroblasts; test: Cell viability by ATP content of substantially dry stored human neonatal fibroblasts; format: cell-based; set-up: % CELL VIABILITY 24 hr / % CELL VIABILITY 48 hr / % CELL VIABILITY 120 hr: concentration or dose not given beside the values; details: for % CELL VIABILITY 24 hr / % CELL VIABILITY 48 hr / % CELL VIABILITY 120 hr: inhibitor in predehydration and rehydration formulation; for % CELL VIABILITY 24 hr: MCS dehydration formulation 41, dry stored 24 hr at ambient temperature; for % CELL VIABILITY 48 hr: MCS dehydration formulation 41, dry stored 48 hr at ambient temperature; for % CELL VIABILITY 120 hr: MCS dehydration formulation 41, dry stored 120 hr at ambient temperature
Excerpt: ATP content may be determined using a Cell Titer-Glo Luminescent Cell viability Assay (Promega) in accordance with the manufacturer's instructions. The addition of the Cell Titer-Glo Luminescent reagent into the cells generates a luminescent signal proportional to the amount of intracellular ATP. The amount of ATP is directly proportional to the number of cells present in culture, and it is then a homogeneous method of determining the number of viable (metabolically active) cells in the rehydrated cell preparation.
Briefly, human neonatal fibroblasts were suspended in Cascade Media 106 and seeded as 100 ul cultures at a densities of 100-5000 cells per test in 96 well plates and incubated in an environment of ambient atmosphere while maintaining an elevated CO2 level (5%-10%) and temperature of 37 C with relative humidity of 85-95%. The culture is adjusted to specific composition of predehydration formulations and media specified concentration of each apoptosis inhibitor. The cells were incubated for a period of at least one hour but not more than 3 hours hr at 37° C. The predehydration formulation was thoroughly removed and 10-15 ul of MCS dehydration formulation 41 (Table 1) was added to each well. The cells were substantially air dried at 37 C, 5% CO2, 20% relative humidity over a period of 90 minutes, stored at ambient temperature for a period of 24, 48 or 120 hours. At the appropriate time, the substantially dry stored cells were rehydrated by treating with a rehydration formulation comprising the same concentration of apoptosis inhibitor in 100-200 μl of predehydration formulation. Cell viability was determined by measuring ATP content as described herein.

Mammalian cells = details: trehalose-loaded dried cells stored for even few minutes; cited from earlier work
HeLa cells = test: Cell viability by Trypan Blue method of substantially dry stored HeLa cells; format: cell-based
Procedure: Cell viability may be measured using a Trypan Blue staining procedure. […] Cell counting was performed in 9 mm KOVA glass slides 10 with Grid Chambers (Hycor) in triplicate under a Leitz Fluovert microscope. The percentage of cell survival is reported relative to untreated control cells. Briefly, HeLa cells were substantially dry stored using predetermined predehydration formulations (SC1, salubrinal and SC3, MLS-0315763) and a subset of the dehydration formulations set forth in Table 1 for a period of seven hours and then rehydrated using the rehydration formulations listed below (RC1, salubrinal and RC3, MLS-0315763). Cell viability was assessed seven days after rehydration using the Trypan Blue method. The results are shown in Table 3 and FIG. 3A and FIG. 3B.

| SMILES | % CELL VIABILITY 24 hr [1] [%] | % CELL VIABILITY 48 hr [1] [%] | % CELL VIABILITY 120 hr [1] [%] | cell survival after dry storage (in words) (Mammalian cells) | surviving / viable cells (in words) (HeLa cells; HeLa cells, 7 hours dry storage, 7 days after rehydration) | % HeLa Cell Viability (HeLa cells; dry stored seven hours, Trypan Blue seven days after rehydration) [%] | viable cells (in words) ([1]; by 24 hr of dry storage) |
| --- | --- | --- | --- | --- | --- | --- | --- |
| O=C(NOC[C@H](O)CO)c1ccc(F)c(F)c1Nc1ccc(I)cc1F [PD032591, N-[(2R)-2,3-dihydroxypropoxy]-3,4-difluoro-2-[(2-fluoro-4-iodophenyl)amino]-benzamide] | 100.0 | 85.1 | 95.7 |  |  |  |  |
| C[S+]([O-])CCCCN=C=S [L-sulphurophane] | 98.8 | 65.3 | 50.9 |  |  |  |  |
| O=C(/C=C/c1ccccc1)NC(NC(=S)Nc1cccc2cccnc12)C(Cl)(Cl)Cl (stereo not shown) [Salubrinal] | 100.0 | 72.9 | 109.5 |  |  |  |  |
| CO[C@H]1C[C@@H]2CC[C@@H](C)[C@@](O)(O2)C(=O)C(=O)N2CCCC[C@H]2C(=O)O[C@H]([C@H](C)C[C@@H]2CC[C@@H](O)[C@H](OC)C2)CC(=O)[C@H](C)/C=C(\C)[C@@H](O)[C@@H](OC)C(=O)[C@H](C)C[C@H](C)/C=C/C=C/C=C/1C [Rapamycin] | 88.4 | 73.2 | 90.0 |  |  |  |  |
| O=c1cc(N2CCOCC2)oc2c(-c3ccccc3)cccc12 [LY294002, 2-(4-morpholinyl)-8-phenyl-4H-1-benzopyran-4-one] | 83.8 | 85.9 | 98.7 |  |  |  |  |
| OC[C@H]1O[C@H](O[C@H]2O[C@H](CO)[C@@H](O)[C@H](O)[C@H]2O)[C@H](O)[C@@H](O)[C@@H]1O [Trehalose] | 7.5 | 0.0 | 0.0 | complete cell death | did not yield in any viable cells; also recorded: did not yield any surviving cells | 0 | little to no viable cells |
